In US20220098160A1, “NOVEL CDK 8/19 INHIBITORS” (BIOCAD, priority 2018, published 2022) one finds Papp A→B and efflux ratio data, which are given here for one compound.

The nature of this data set: Permeability through a monolayer of Caco-2 cells. It is filed as in vitro ADME. Conditions: human. As for the experimental part:
Determining the permeability through a monolayer of Caco-2 cells makes it possible to assess the ability of the substances to penetrate biological membranes by means of both active and passive transport.
The intestinal epithelial cells (Caco-2) were cultured using filter inserts ([…], BD Falcon with High Density) for 21 days, after which the monolayer integrity was checked using a Lucifer Yellow dye (Sigma-Aldrich, USA) according to the standard protocol. When setting up an A→B transfer (“intestinal lumen”—“blood flow” transfer), solutions of the tested substances were introduced in pH 6.5 buffer (HBSS, 10 mM HEPES, 15 mM glucose solution) at a concentration of 10 μM into the upper chamber, while the lower chamber was filled with pH 7.4 buffer (HBSS, 10 mM HEPES, 15 mM Glucose solution, 1% BSA). When setting up a B→A transfer (“blood flow”—“intestinal lumen” transfer), the upper chamber was filled with pH 6.5 buffer, and the solutions of the tested substances were introduced in pH 7.4 buffer at a concentration of 10 μM into the lower chamber. Propranolol, which is a high permeability substance, was used as a control.
After incubation for 2 h at 37° C. in an atmosphere containing 5% CO2, the amounts of the tested substances in the upper and lower chambers were determined by the HPLC method using an Agilent1200 chromatograph (Agilent, USA) with preliminary precipitation of proteins with acetonitrile. Chromatographic analysis was performed using a gradient elution mode at a flow rate of 1 ml/min. Peak areas corresponding to the compounds were determined on chromatograms. Based on the peak area values of the compound in calibration standards, compound concentrations in the initial solution and in the samples taken from the wells of the upper and lower chambers were determined.
Permeability through a layer of cells (Papp) was calculated based on the formula:
Papp=(C(t)*V)/(C(θ)*t*Area), where
Papp is the effective permeability constant, m/s V is the solution volume (0.8 ml in the A→B test, and 0.2 ml in the B→A test), ml Area is the surface area of the membrane (0.33 cm^2), cm^2 t is the incubation time (7,200 s), s C(θ) is the concentration of the initial solution, μM C(t) is the concentration of the solution after 2 hours (in the sample from the lower chamber well (test A→B), and in the sample from the upper chamber well (test B→A)), μM.
The value was calculated using the following formula:
efflux=Papp B-A/Papp A-B, where
Papp A-B is the permeability value during direct assay (A→B); Papp B-A is the permeability value during reverse assay (B→A);
(In general: Caco-2 monolayers are a common model of the intestinal barrier.)

Consider `CN1CCN(C(=O)c2ccc3cc(CCNc4ccnc5ccc(C#N)cc45)ccc3c2)CC1` [Compound 5, 4-((2-(6-(4-methylpiperazine-1-carbonyl)naphth-2-yl)ethyl)amino) quinoline-6-carbonitryl], for which, where the note is “A→B, pH 6.5 upper / pH 7.4 lower chamber, 2 h at 37° C.”, the Papp A→B at 2 h, 10 μM was found to be 7.1 ×10⁻⁶ cm/s. Besides, the efflux ratio at 2 h, 10 μM (Papp B-A/Papp A-B, 2 h) is 2.

For orientation: Papp A→B means the apparent permeability from the apical to the basolateral side of a cell layer. For orientation: efflux ratio means the permeability from basolateral to apical divided by that in the opposite direction, in the common usage.
